As a reminder, the inhibition is how much of the control response was suppressed.

Test [1] concerns the target T1, panel of 203 kinases (Homo sapiens, UniProt P19784).
T1 construct: purchased DiscoverX (KINOMEscan)
Put plainly: KINOMEscan competitive binding, whole panel. The following applies: 10 µM, n=1; kinase CSNK2A2; read-out: Percent inhibition CSNK2A2. From the text:
(§1) The kinases were expressed as fusions to T7 bacteriophage. This is a sensitive, competitive binding assay where test compounds were used to displace immobilized ATP-site binding probe ligands from kinases of interest. The amount of kinase that remained bound to the immobilized probe ligands on the solid support was quantified. Percentage inhibition data were was plotted on kinome trees using the web-based tool KinMap (http://www.kinhub.org/kinmap) ([60]).

For test [2], the target named is T2, panel of 203 kinases (Homo sapiens, UniProt P53667).
T2 construct: purchased DiscoverX (KINOMEscan)
Put plainly: KINOMEscan competitive binding, whole panel. The following applies: 10 µM, n=1; kinase LIMK1; read-out: Percent inhibition LIMK1.
Text: as §1

Test [3] deals with T3, panel of 203 kinases (Homo sapiens, UniProt Q7KZI7).
T3 construct: purchased DiscoverX (KINOMEscan)
The test can be described thus: KINOMEscan competitive binding, whole panel. The following applies: 10 µM, n=1; kinase MARK2; read-out: Percent inhibition MARK2.
Text: as §1

A further test addresses T4, JAK kinase domains (Homo sapiens, UniProt O60674).
T4 construct: purchased DiscoverX (KINOMEscan)
The test can be described thus: KINOMEscan competitive binding. The following applies: 10 µM, n=1; kinase JAK2(Kin.Dom.2); read-out: Percent inhibition JAK2(Kin.Dom.2).
Text: as §1

In the next test the target is T5, PAK4 (Homo sapiens, UniProt O96013).
T5 construct: purchased DiscoverX (KINOMEscan)
The test can be described thus: KINOMEscan competitive binding. The following applies: n=1, read-out: Percent inhibition, PAK4.

A further test addresses T6, PAK6 (Homo sapiens, UniProt Q9NQU5).
T6 construct: purchased DiscoverX (KINOMEscan)
The test can be described thus: KINOMEscan competitive binding. The following applies: n=1, read-out: Percent inhibition, PAK6.

A further test concerns the target T7, PIM2 (Homo sapiens, UniProt Q9P1W9).
T7 construct: purchased DiscoverX (KINOMEscan)
Put plainly: KINOMEscan competitive binding. The following applies: n=1, read-out: Percent inhibition, PIM2.

In a further test the target is T8, PLK4 (Homo sapiens, UniProt O00444).
T8 construct: purchased DiscoverX (KINOMEscan)
T8 sequence (O00444 1-970): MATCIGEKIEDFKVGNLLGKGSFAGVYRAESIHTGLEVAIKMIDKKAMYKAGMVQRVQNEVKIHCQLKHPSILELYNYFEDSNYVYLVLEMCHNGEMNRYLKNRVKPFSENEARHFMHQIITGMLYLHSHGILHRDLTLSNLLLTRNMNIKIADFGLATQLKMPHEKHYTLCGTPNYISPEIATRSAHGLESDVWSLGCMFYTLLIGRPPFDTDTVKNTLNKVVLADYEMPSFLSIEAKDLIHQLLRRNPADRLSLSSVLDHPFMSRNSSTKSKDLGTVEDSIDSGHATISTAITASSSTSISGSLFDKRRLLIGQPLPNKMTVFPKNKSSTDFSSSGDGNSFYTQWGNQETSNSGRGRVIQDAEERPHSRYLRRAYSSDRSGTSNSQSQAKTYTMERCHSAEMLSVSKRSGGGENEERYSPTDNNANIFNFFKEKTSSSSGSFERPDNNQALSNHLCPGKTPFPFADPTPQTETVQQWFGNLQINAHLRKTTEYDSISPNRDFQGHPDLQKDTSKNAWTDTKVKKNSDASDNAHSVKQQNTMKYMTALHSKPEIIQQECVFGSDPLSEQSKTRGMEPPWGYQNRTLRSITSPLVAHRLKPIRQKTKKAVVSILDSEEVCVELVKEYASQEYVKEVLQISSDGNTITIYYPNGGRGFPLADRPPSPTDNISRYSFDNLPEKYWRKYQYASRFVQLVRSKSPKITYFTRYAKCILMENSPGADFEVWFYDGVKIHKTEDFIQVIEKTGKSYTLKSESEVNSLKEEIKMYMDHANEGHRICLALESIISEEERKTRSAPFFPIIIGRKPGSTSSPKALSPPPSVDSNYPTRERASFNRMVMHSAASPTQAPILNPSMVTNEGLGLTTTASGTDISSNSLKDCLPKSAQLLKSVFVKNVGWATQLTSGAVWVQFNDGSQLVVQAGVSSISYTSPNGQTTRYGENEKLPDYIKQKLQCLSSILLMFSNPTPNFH
Put plainly: KINOMEscan competitive binding. The following applies: n=1, read-out: Percent inhibition, PLK4.

For a further test, the target named is T9, SNF1LK2 (Homo sapiens, UniProt Q9H0K1).
T9 construct: purchased DiscoverX (KINOMEscan)
Put plainly: KINOMEscan competitive binding. The following applies: n=1, read-out: Percent inhibition, SNF1LK2.

A further test deals with T10, SRC (Homo sapiens, UniProt P12931).
T10 construct: purchased DiscoverX (KINOMEscan)
Put plainly: KINOMEscan competitive binding. The following applies: n=1, read-out: Percent inhibition, SRC.

In another test the target is T11, STK16 (Homo sapiens, UniProt O75716).
T11 construct: purchased DiscoverX (KINOMEscan)
The test can be described thus: KINOMEscan competitive binding. The following applies: n=1, read-out: Percent inhibition, STK16.

The target of a further test is T12, TRKB (Homo sapiens, UniProt Q16620).
T12 construct: purchased DiscoverX (KINOMEscan)
The test can be described thus: KINOMEscan competitive binding. The following applies: n=1, read-out: Percent inhibition, TRKB.

The next test addresses T13, TRKC (Homo sapiens, UniProt Q16288).
T13 construct: purchased DiscoverX (KINOMEscan)
The test can be described thus: KINOMEscan competitive binding. The following applies: n=1, read-out: Percent inhibition, TRKC.

A further test deals with T14, ULK3(mouse) (Mus musculus, UniProt Q3U3Q1).
T14 construct: purchased DiscoverX (KINOMEscan)
T14 sequence (Q3U3Q1 1-472): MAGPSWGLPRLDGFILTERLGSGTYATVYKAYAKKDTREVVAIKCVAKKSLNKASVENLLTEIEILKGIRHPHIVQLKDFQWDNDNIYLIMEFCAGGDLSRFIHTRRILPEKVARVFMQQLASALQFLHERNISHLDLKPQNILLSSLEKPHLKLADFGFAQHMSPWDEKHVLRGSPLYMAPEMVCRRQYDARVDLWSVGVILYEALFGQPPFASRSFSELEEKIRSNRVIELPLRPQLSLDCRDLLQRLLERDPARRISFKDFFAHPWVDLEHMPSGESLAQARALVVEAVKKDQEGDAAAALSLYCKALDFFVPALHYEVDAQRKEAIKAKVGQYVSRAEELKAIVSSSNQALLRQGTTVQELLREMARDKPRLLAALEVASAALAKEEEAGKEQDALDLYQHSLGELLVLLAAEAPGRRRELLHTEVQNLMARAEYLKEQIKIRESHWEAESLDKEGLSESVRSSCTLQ
Put plainly: KINOMEscan competitive binding. The following applies: n=1, read-out: Percent inhibition, ULK3(mouse).

In a further test the target is T15, YANK2 (Homo sapiens, UniProt Q9NY57).
T15 construct: purchased DiscoverX (KINOMEscan)
Put plainly: KINOMEscan competitive binding. The following applies: n=1, read-out: Percent inhibition, YANK2.

As to `CN1CCN(c2ccc(Nc3nccc(-c4cnn5ncccc45)n3)cc2C#N)CC1` [Compound 1], the inhibition at 10 µM worked out at 96.3% on panel of 203 kinases [1]; 85.9% on panel of 203 kinases [2]; 92% on panel of 203 kinases [3]; 86.8% at JAK kinase domains; 95.7% at PAK4; 92.5% on PAK6. Also, the inhibition at 10 µM on PIM2 amounted to 99.7%; on PLK4, 99.7%; on SNF1LK2 it was 69.9%; at SRC it was 99.2%; on STK16, 100%; on TRKB, 96.5%. The inhibition at 10 µM on TRKC is 82.8%; on ULK3(mouse), 97.1%; on YANK2, 0%.

Regarding `COc1ccc(Nc2nccc(-c3cnn4ncccc34)n2)cc1` [Compound 2], the inhibition at 10 µM at panel of 203 kinases [1] stood at 74.2%; on panel of 203 kinases [2] it was 90.5%; at panel of 203 kinases [3], 0%; on JAK kinase domains it was 89.7%; on PAK4 it was 0%; at PAK6 it was 82%. The inhibition at 10 µM on PIM2 was 81.1%; at PLK4, 99%; at SNF1LK2, 0%; at SRC, 85%; at STK16 it was 99.7%; on TRKB, 0%. Moreover, the figures for the inhibition at 10 µM on TRKC, at ULK3(mouse) and on YANK2 were 0%, 92.5% and 0%, respectively.

For `Cc1ccc(O)cc1Nc1ccnc(Nc2cccc(C(N)=O)c2)n1` [Compound 3], the inhibition at 10 µM at panel of 203 kinases [1] was found to be 0%; at panel of 203 kinases [2], 86.4%; at panel of 203 kinases [3], 0%; at JAK kinase domains, 80.6%; on PAK4, 0%; at PAK6 it was 0%. In addition, the inhibition at 10 µM on PIM2 worked out at 0%; on PLK4, 95.2%; at SNF1LK2, 96.7%; on SRC it was 100%; at STK16 it was 99.9%; on TRKB, 0%. Besides, the figures for the inhibition at 10 µM on TRKC, on ULK3(mouse) and on YANK2 were 0%, 91.5% and 0%, respectively.

Take `Cc1ccc(O)cc1N(C)c1ccnc(Nc2cccc(S(N)(=O)=O)c2)n1` [Compound 4]: the inhibition at 10 µM at panel of 203 kinases [1] worked out at 0%; at panel of 203 kinases [2] it was 91.9%; at panel of 203 kinases [3] it was 66%; at JAK kinase domains, 90.7%; at PAK4 it was 0%; on PAK6 it was 94.3%. Further, the inhibition at 10 µM on PIM2 turned out to be 0%; on PLK4, 99.4%; on SNF1LK2 it was 95.1%; on SRC it was 100%; on STK16 it was 99.8%; at TRKB it was 91.7%. For the same molecule, the inhibition at 10 µM was 90% on TRKC, 98.8% at ULK3(mouse) and 94.5% at YANK2.

As for `Fc1cccc(COc2ccc(Nc3ncnc4c3CN(CCN3CCOCC3)CC4)cc2Cl)c1` [Compound 6], the inhibition at 10 µM at panel of 203 kinases [1], at panel of 203 kinases [2], at panel of 203 kinases [3], at JAK kinase domains, on PAK4 and on PAK6 was 0% in each case. Also, the inhibition at 10 µM at PIM2, at PLK4, at SNF1LK2, at SRC, on STK16 and at TRKB was 0% each time. Also, the inhibition at 10 µM on TRKC, at ULK3(mouse) and on YANK2 was 0% in each case.

With `COc1cc(Nc2nccc(-c3sc(N)nc3-c3cccc(NC(=O)c4c(F)cccc4F)c3)n2)cc(OC)c1OC` [Compound 7], the inhibition at 10 µM turned out to be 0% on panel of 203 kinases [1]; 100% at panel of 203 kinases [2]; 73.7% at panel of 203 kinases [3]; 0% on JAK kinase domains; 0% at PAK4; 65% at PAK6. The inhibition at 10 µM is 0% at PIM2; 99.8% at PLK4; 99.4% on SNF1LK2; 100% on SRC; 98.7% at STK16; 0% on TRKB. Also, the inhibition at 10 µM on TRKC was 0%; at ULK3(mouse) it was 100%; on YANK2, 93%.

For `C[C@@H](Oc1cc(-c2cnc3ccccn23)sc1C(N)=O)c1ccccc1Cl` [Compound 8], the inhibition at 10 µM on panel of 203 kinases [1] is 95.2%; at panel of 203 kinases [2] it was 0%; on panel of 203 kinases [3] it was 0%; on JAK kinase domains, 70.2%; at PAK4, 0%; at PAK6, 0%. The inhibition at 10 µM on PIM2 worked out at 0%; at PLK4, 76.4%; on SNF1LK2, 0%; on SRC, 0%; at STK16 it was 0%; on TRKB, 0%. The inhibition at 10 µM at TRKC, on ULK3(mouse) and on YANK2 was 0% each time.

`c1ccc(COc2cccc(-c3ccnc4[nH]ccc34)c2)cc1` [Compound 9]: the inhibition at 10 µM on panel of 203 kinases [1], on panel of 203 kinases [2], on panel of 203 kinases [3], at JAK kinase domains, at PAK4 and on PAK6 was 0% each time. For the same molecule, the inhibition at 10 µM on PIM2, on PLK4, on SNF1LK2, on SRC, on STK16 and on TRKB was 0% throughout. Also, the inhibition at 10 µM on TRKC, at ULK3(mouse) and at YANK2 was 0% throughout.

The values above are taken from paper PMC9927415, “Tyrosine Kinase Inhibitors Display Potent Activity against Cryptosporidium parvum” (Microbiology Spectrum, 2022).
